Laboratory results taken from paper PMC5986872, “Schaftoside Interacts With NlCDK1 Protein: A Mechanism of Rice Resistance to Brown Planthopper, Nilaparvata lugens” (Frontiers in Plant Science, 2018).

Target: T1, NlCDK1 (Nilaparvata lugens, UniProt A0A1W5R2Z8)
T1 construct: CDS cloned BamHI/HindIII in pET32a
Experiment: intrinsic fluorescence quenching titration, double-log plot
Format: binding
Details: PBS; pH 7.4; 0.24 × 10^-6 mol/L protein; excitation 281 nm, emission 335 nm

T1 sequence (A0A1W5R2Z8 1-302): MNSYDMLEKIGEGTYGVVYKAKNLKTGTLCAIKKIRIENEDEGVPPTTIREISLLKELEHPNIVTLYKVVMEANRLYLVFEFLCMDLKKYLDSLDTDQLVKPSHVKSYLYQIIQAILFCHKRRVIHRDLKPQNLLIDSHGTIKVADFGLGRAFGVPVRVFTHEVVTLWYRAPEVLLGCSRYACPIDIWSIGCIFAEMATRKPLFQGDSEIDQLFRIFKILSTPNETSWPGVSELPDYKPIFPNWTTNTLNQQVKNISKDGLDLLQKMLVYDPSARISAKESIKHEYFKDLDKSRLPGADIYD

In the case of `O=c1cc(-c2ccc(O)cc2)oc2c([C@@H]3OC[C@H](O)[C@H](O)[C@H]3O)c(O)c([C@@H]3O[C@H](CO)[C@@H](O)[C@H](O)[C@H]3O)c(O)c12` [schaftoside, 6-C-beta-D-Glucosyl-8-C-alpha-L-arabinosylapigenin], the “KA (apparent association constant)” value is reported as 6.436 × 10^3.
